Several values for one entry are separate records, joined by “and”; a condition that tells them apart may be missing. Identical values can stand only once. Inconclusive results are not listed.

The assay relates to SK-MEL-5 DCT mRNA qPCR, delta-delta-Ct, overnight. The experiment in a line: DCT transcript decrease in melanoma cells – cell-based, SK-MEL-5, RT-qPCR, dry powder samples, orthogonal assay for MITF inhibitor project, dose response (AID 651771). Background: In qPCR the cycle at which signal appears reflects the starting amount.
Consider `O=C1C=C(Nc2ccc([N+](=O)[O-])c(C(F)(F)F)c2)C(=O)c2ccccc21`, for which the AC40 is 1.05 µM.

As for `O=C1C(Nc2ccc(Cl)cc2)=C(N2CCCC2)C(=O)c2ccccc21`, the AC40 is 9.53 µM.

As to `CCN1CCN(C2=C(NS(=O)(=O)c3ccc(Br)cc3)C(=O)c3ccccc3C2=O)CC1`, the AC40 was 3.38 µM.

Take `O=C1C=C(NS(=O)(=O)c2ccccc2)C(=O)c2ccccc21`: the AC40 was 4.06 µM.

Take `Cc1ccc(NC2=CC(=O)c3ccccc3C2=O)cc1`: the AC40 was 0.277 µM.

Take `NC1=C(NS(=O)(=O)c2ccc(Br)cc2)C(=O)c2ccccc2C1=O`: the AC40 is 12.8 µM.

Turning to `O=C1C=C(NS(=O)(=O)c2ccc(Br)cc2)C(=O)c2ccccc21`, the AC40 was 7.25 µM.

With `C=CCNC1=C(Cl)C(=O)c2ccccc2C1=O`, the AC40 is 1 µM.

With `CN1CCN(C2=C(NS(=O)(=O)c3ccc(Br)s3)C(=O)c3ccccc3C2=O)CC1`, the AC40 is 1.68 µM.

Turning to `COc1ccc(NC2=C(N3CCCCC3)C(=O)c3ccccc3C2=O)cc1`, the AC40 is 12.8 µM.

As to `CC(C)N1CCN(C2=C(Nc3ccc(F)cc3F)C(=O)c3ccccc3C2=O)CC1`, the AC40 was 3.67 µM.

Turning to `O=C1C=C(Nc2ccccc2)C(=O)c2ccccc21`, the AC40 is 0.302 µM and 0.325 µM.

For the compound `NS(=O)(=O)c1ccc(NC2=CC(=O)c3ccccc3C2=O)cc1`, the AC40 is 0.0555 µM.

Take `CC(C)N1CCN(C2=C(Nc3ccc(F)cc3)C(=O)c3ccccc3C2=O)CC1`: the AC40 is 2.9 µM.

Turning to `COC1=C(NS(=O)(=O)c2ccc(Br)cc2)C(=O)c2ccccc2C1=O`, the AC40 is 8.65 µM.

With `NC1=CC(=O)c2ccccc2C1=O`, the AC40 is 0.966 µM.

On to `NC1=C(NS(=O)(=O)c2ccccc2)C(=O)c2ccccc2C1=O`, for which the AC40 was 3.02 µM.

Regarding `COC1=C(Nc2ccccc2)C(=O)c2ccccc2C1=O`, the AC40 was 0.838 µM.

In the case of `NC1=C(NS(=O)(=O)c2cccs2)C(=O)c2ccccc2C1=O`, the AC40 is 2.01 µM.

`O=C(NC1=C(Cl)C(=O)c2ccccc2C1=O)c1ccccc1`: the AC40 is 0.336 µM.

As to `CCN1CCN(C2=C(NC(=O)c3ccccc3)C(=O)c3ccccc3C2=O)CC1`, the AC40 was 0.884 µM.

As for `O=C1C(Nc2ccc(Br)cc2)=C(N2CCCCC2)C(=O)c2ccccc21`, the AC40 was 12.6 µM.

As for `O=C1C(Nc2ccccc2)=C(c2ccccc2)C(=O)c2ccccc21`, the AC40 was 10.4 µM.

`Cc1nc2ccccc2n1/N=C/c1ccc([N+](=O)[O-])s1`: the AC40 is 1.54 µM.

For the compound `CCN1CCN(C2=C(Nc3ccc(F)cc3F)C(=O)c3ccccc3C2=O)CC1`, the AC40 is 4.78 µM.

Turning to `COC1=C(NS(=O)(=O)c2cccs2)C(=O)c2ccccc2C1=O`, the AC40 is 9.01 µM.

`NC1=C(NC(=O)c2ccccc2)C(=O)c2ccccc2C1=O`: the AC40 was 1.73 µM.

Regarding `O=C1C=C(NS(=O)(=O)c2cccs2)C(=O)c2ccccc21`, the AC40 was 4.64 µM.

(Values after PubChem BioAssay AID651771 (Broad Institute, 2012).)
